Columns and labels:
[1] = biological target: T1, human p38 MAP kinase (Homo sapiens, UniProt Q16539); assay: Measurement of the enzyme inhibitory activity of active form p38 MAP kinase, 32P uptake into Myelin Basic Protein (Reference Example C 1); format: biochemical; settings: Myelin Basic Protein substrate, 30° C., 60 minutes, read-out: IC50 (concentration necessary for inhibiting uptake of 32P into an acid insoluble fraction by 50%)
T1 construct: made in house; host or cells: Sf-21 insect cells, baculovirus (BAC-HP38 co-infected with BAC-caMKK3)
T1 sequence (Q16539 whole entry): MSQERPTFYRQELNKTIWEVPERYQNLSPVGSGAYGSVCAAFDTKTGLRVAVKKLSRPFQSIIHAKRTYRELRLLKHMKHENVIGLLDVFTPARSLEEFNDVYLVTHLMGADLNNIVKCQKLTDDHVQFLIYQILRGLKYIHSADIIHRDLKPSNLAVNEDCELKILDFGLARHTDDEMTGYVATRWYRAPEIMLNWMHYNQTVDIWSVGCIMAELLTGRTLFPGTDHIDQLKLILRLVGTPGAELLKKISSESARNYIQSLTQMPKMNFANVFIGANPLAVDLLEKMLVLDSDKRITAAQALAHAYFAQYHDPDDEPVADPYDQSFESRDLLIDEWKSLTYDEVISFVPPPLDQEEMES
Description: The genetic manipulations described below were according to a method described in the book (Maniatis et al., Molecular Cloning, Cold Spring Harbor Laboratory, 1989) or methods described in the protocols attached to the reagents.
(1) Cloning of Human p38 MAP Kinase Gene and Preparation of Recombinant Baculovirus
Cloning of human p38 MAP kinase gene was performed by a PCR method using a primer set P38 U: 5′-[…] 3′ [SEQ ID NO:1] and PAG-L: 5′-[…]-3′ [SEQ ID NO:2] made by the use of kidney cDNA (Toyobo, QUICK-Clone cDNA) as a template and referring to the base sequence of p38 MAP kinase gene reported by Han et al. (Science 265 (5173), 808 811 (1994)).
A PCR reaction was performed by a Hot Start method using AmpliWax PCR Gem 100 (Takara Shuzo). As the lower mixed solution, 2 μL 10×LA PCR Buffer, 3 μL 2.5 mM dNTP solution, each 2.5 μL of 12.5 μM primer solutions, and 10 μL sterile distilled water were mixed. As the upper mixed solution, 1 μL human cardiac cDNA (1 ng/mL) as a template, 3 μL 10×LA PCR Buffer, 1 μL 2.5 mM dNTP solution, 0.5 μL TaKaRa LA Taq DNA polymerase (Takara Shuzo), and 24.5 μL sterile distilled water were mixed. One AmpliWax PCR Gem 100 (Takara Shuzo) was added to the prepared lower mixed solution and the mixture was treated at 70° C. for 5 min and for 5 min in an ice and, thereafter, the upper mixed solution was added to prepare a reaction solution for PCR. […]

IC50 [1]: 630 nM
melting point: 172 to 173 °C
SMILES: CNc1nc(-c2ccc3c(c2)CCC3)c(-c2cccnc2)s1 [13-74]

Reference: patent publication US20050080113A1, “Medicinal compositions” (priority 2001, published 2005)
